Results on eleven molecules are retold here after patent publication US20120095025A1, “SUBSTITUTED [1,2,4]TRIAZOLO[1,5-a]PYRIMIDINES AND THEIR USE AS POTASSIUM CHANNEL MODULATORS” (NEUROSEARCH A/S, priority 2009, published 2012).

pKd: −log10 of the molar value.

The term pKd denotes the negative decadic logarithm of the Kd, by convention in mol/L. A low value points to a large Kd.

The target in this assay is T1, hSK1 channels (Homo sapiens, UniProt Q92952).
T1 construct: expressed in transfected cells; host or cells: HEK293
Briefly: Whole-cell patch-clamp recording of SK channel current in HEK293 cells expressing hSK1. The assay is classed as cell-based. As to conditions: concentration required for decreasing the baseline current to 50% of the initial current. Here is the method:
The ionic current through small-conductance Ca^2+-activated K^+ channels (SK channels, subtype 1) is recorded using the whole-cell configuration of the patch-clamp technique in a classic patch-clamp set-up using HEK293 tissue culture cells expressing hSK1 channels as described in e.g. WO 2006/100212.
For inhibitors a Kd value, defined as the concentration required for decreasing the baseline current to 50% of the initial current, was estimated.
Molecule `CON=CNc1nc2nccc(C(C)Oc3ccc(C4CCCC4)cc3)n2n1` (centres unmarked) [Example 5, N-{7-[1-(4-cyclopentyl-phenoxy)ethyl]-[1,2,4]triazolo[1,5-a]pyrimidin-2-yl}-N′-methoxy-formamidine] showed a negative-log Kd (pKd) below 5.52. Under `CC(Oc1ccc(C(C)(C)C)cc1)c1ccnc2nc(NC=NO)nn12` (centres unmarked) [Example 1, N-{7-[1-(4-tert-Butylphenoxy)ethyl]-[1,2,4]triazolo[1,5-a]pyrimidin-2-yl}-N′-hydroxy-formamidine] stands 6.00 to 7.00.

Turning to `CON=CNc1nc2nccc(C(C)Oc3ccc(C(C)C)cc3)n2n1` (centres unmarked) [Example 6, N-{7-[1-(4-Isopropylphenoxy)ethyl]-[1,2,4]triazolo[1,5-a]pyrimidin-2-yl}-N′-methoxy-formamidine], the pKd is below 5.52.

`CON=CNc1nc2nccc(C(C)Oc3ccc(C(C)(C)C)cc3C)n2n1` (centres unmarked) [Example 7, N-{7-[1-(4-tert-Butyl-2-methylphenoxy)ethyl]-[1,2,4]triazolo[1,5-a]pyrimidin-2-yl}-N′-methoxy-formamidine] gave a pKd above 7.00. `CC(C)ON=CNc1nc2nccc(C(C)Oc3ccc(C(C)(C)C)cc3)n2n1` (centres unmarked) [Example 3, N-{7-[1-(4-tert-Butylphenoxy)ethyl]-[1,2,4]triazolo[1,5-a]pyrimidin-2-yl}-N′-isopropyloxy-formamidine] had a pKd below 5.52. `CCC(Oc1ccc(C(C)(C)C)cc1)c1ccnc2nc(NC=NOC)nn12` (centres unmarked) [Example 8, N-{7-[1-(4-tert-Butylphenoxy)propyl]-[1,2,4]triazolo[1,5-a]pyrimidin-2-yl}-N′-methoxy-formamidine]: the pKd is above 7.00. Molecule `CON=CNc1nc2nccc(C(C)(C)Oc3ccc(C(C)(C)C)cc3)n2n1` [Example 10, N-{7-[1-(4-tert-Butylphenoxy)-1-methyl-ethyl]-[1,2,4]triazolo[1,5-a]pyrimidin-2-yl}-N′-methoxy-formamidine] gave a pKd of 6.00 to 7.00. As to `CON=CNc1nc2nccc(C(C)Oc3ccc(C(C)(C)C)cc3)n2n1` (centres unmarked) [Example A, N-{7-[1-(4-tert-Butylphenoxy)ethyl]-[1,2,4]triazolo[1,5-a]pyrimidin-2-yl}-N′-methoxy-formamidine], the pKd is above 7.00. `CCCON=CNc1nc2nccc(C(C)Oc3ccc(C(C)(C)C)cc3)n2n1` (centres unmarked) [Example 2, N-{7-[1-(4-tert-Butylphenoxy)ethyl]-[1,2,4]triazolo[1,5-a]pyrimidin-2-yl}-N′-propyloxy-formamidine] gave a pKd above 7.00. In the case of `CON=CNc1nc2nccc(C(C)Oc3ccc(OC(C)(C)C)cc3)n2n1` (centres unmarked) [Example 9, N-{7-[1-(4-tert-Butoxy-phenoxy)ethyl]-[1,2,4]triazolo[1,5-a]pyrimidin-2-yl}-N′-methoxy-formamidine], the pKd is above 7.00.

For the molecule `CON=CNc1nc2nccc(COc3ccc(C(C)(C)C)cc3)n2n1` [Example 4, N-[7-(4-tert-Butylphenoxymethyl)-[1,2,4]triazolo[1,5-a]pyrimidin-2-yl]-N′-methoxy-formamidine], the pKd is below 5.52.
